Reference: PubChem BioAssay AID179 (DTP/NCI, 2004)
Activity calls are given as the source filed them.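 How the source made its calls: active means compounds giving half or more protection of infected cells from virus-caused growth loss, again on retest; inactive means the rest.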

System: CEM cells HIV-1 protection, formazan growth assay
Assay: NCI AIDS Antiviral Assay
Details: for IC50: measured here: growth of uninfected CEM cells
How it was run: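 Soluble formazan readout of cell growth; CEM cells ± HIV-1; 5 drug concs. ≥50% protection → retest; ≥50% again = moderately active; reproducible 100% = confirmed active.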

Row | Structure (SMILES) | EC50 [µM] | IC50 [µM] | outcome
1 | O=C(Nc1ccc([N+](=O)[O-])cc1[N+](=O)[O-])C(=O)C(C(=O)c1ccc(Cl)c(Cl)c1)C1OC(=O)c2ccccc21 (centres undefined) | > 89.1 | 28.8 | –
2 | O=C1CCC2(c3ccc(Cl)cc3)Nc3cc(Cl)ccc3N12 (centres undefined) | – | – | inactive
3 | CC(=O)C1Cn2c(nc3ccccc32)C[Se]1 (centres undefined) | – | – | inactive
4 | Brc1ccccc2cc(-c3ccccc3)nc1-2 | – | – | inactive
5 | Cc1ccc(S(=O)(=O)N/N=C2/CC3CCC4CC2CC34)cc1 (centres undefined) | > 200 | 79.4 | –
6 | Nc1c(Br)cc2snc3c2c1C(=O)c1ccccc1-3 | > 15.8 | 8.51 | –
7 | COC(=O)CC(CC(=O)C(=O)OC)C(=O)OC (centres undefined) | > 251 | > 251 | –
8 | O=C1CC2c3c(OCc4ccccc4)cccc3OC2O1 (centres undefined) | > 47.9 | > 47.9 | –
9 | CCOC(=O)C1=C(C)N(NC(=O)OC)C2(N)N(NC(=O)OC)C(C)=C(C(=O)OCC)C12C#N (centres undefined) | > 537 | > 537 | –
10 | O=C(CC(=O)N(C(=O)/C=C\c1ccccc1)c1ccc(Cl)cc1)N1N=C(c2ccccc2)C(N=Nc2cccc([N+](=O)[O-])c2)C1=O (centres undefined) | > 200 | 3.55 | –
11 | C(=C\c1nc2ccccc2s1)/c1ccc2c(c1)OCO2 | > 6.76 | > 6.76 | –
12 | O=C1OC2CS(=O)CC2O1 (centres undefined) | > 1550 | > 1550 | –
13 | Cc1ccc(N=Nc2ccc(N(CCC#N)CCC#N)cc2C)c(Br)c1 | > 3.55 | > 3.55 | –
14 | Nc1ccc2cc(S(=O)(=O)O)cc(O)c2c1N=Nc1ccc(NC(=O)Nc2ccc(N=Nc3c(N)ccc4cc(S(=O)(=O)O)cc(O)c34)c(S(=O)(=O)O)c2)cc1S(=O)(=O)O | 55 | > 200 | –
15 | CCC/C(=N/OC(=O)N(C)C)c1ccccc1 | > 200 | 135 | –
16 | COc1ccc(C=C(C(=O)c2ccccc2)C(=O)c2ccccc2)cc1 | > 20.9 | > 20.9 | –
17 | C#Cc1c(C)c(/C=C/C(C)=C/C(=O)OC)n(C)c1C | – | – | inactive
18 | CCCCCCCCCCCCCCCCOP(=O)(O)OCC(N)C(=O)O (centres undefined) | > 200 | 18.6 | –
19 | OC[C@H]1N=C(c2cccs2)OC1c1ccccc1 (some centres undefined) | > 200 | > 200 | –
20 | Cc1cc(N(CCC#N)CCC#N)ccc1/C=C(\NC(=O)/C=C/c1ccccc1)NC(=O)Nc1ccccc1C | > 9.77 | > 9.77 | –
21 | C#CCN1CCCC(O)C1 (centres undefined) | – | – | inactive
22 | Cc1cc(C)c(-n2c(-c3ccccc3)cs/c2=N\N=C2C=C(C(C)(C)C)C(=O)C(C(C)(C)C)=C2)c(C)c1 | > 14.1 | > 14.1 | –

Row | Structure (SMILES) | EC50 [µM] | IC50 [µM] | outcome
23 | O=C(O)C1CSC(c2cccs2)N1 (centres undefined) | > 200 | > 200 | –
24 | Clc1ccc(NC2=NCCN=C(Nc3ccc(Cl)c(Cl)c3)SS2)cc1Cl | > 11.2 | > 11.2 | –
25 | C=CCOC1OC(CO[Si](C)(C)C(C)(C)C)C(OCc2ccccc2)C(OCc2ccccc2)C1OCc1ccccc1 (centres undefined) | – | – | inactive
26 | CN(C)Cc1[nH]c(=O)[nH]c(=O)c1O | > 200 | 23.4 | –
27 | Cc1ccc(S(=O)(=O)N2CCC3(C(/C=C/c4ccccc4)=Nc4ccccc43)C2c2ccccc2)cc1 (centres undefined) | – | – | inactive
28 | Cn1nc2ccc([N+](=O)[O-])cc2[n+]1[O-] | > 200 | 155 | –
29 | CC(C)(C)C1CCC(=O)/C(=C/CC2CC(=O)N(c3ccccc3)C(=O)C2)C1 (centres undefined) | > 200 | 11.2 | –
30 | CCOP(=O)(OCC)/C(C#N)=C/c1ccc(-c2ccc(F)cc2F)o1 | – | – | inactive
31 | Cc1ccsc1/C=N/Nc1cc(C)c2cccc(C)c2n1 | > 200 | 138 | –
32 | N#CC1(C#N)C(C#N)(C#N)C12CCCCC2 | > 20 | 10 | –
33 | c1ccc2c(c1)cc1c3[nH]c4ccccc4c3ccn21 | > 200 | 6.76 | –
34 | CC1=CC2C(=O)N(c3ccccc3)C(=O)C2CC1n1[nH]c(=O)n(Cc2ccccc2)c1=O (centres undefined) | > 302 | > 302 | –
35 | O=C(O)CCN(CCCN(CCC(=O)O)CCC(=O)O)CCC(=O)O | > 575 | 8.13 | –
36 | Cc1nccc2c1cnc1ccnn12 | > 28.2 | > 28.2 | –
37 | Cc1[nH]nc2c(N(C)C)ncnc12 | > 200 | 170 | –
38 | CCOC(=O)C(C(C)=O)C(c1ccc(N(C)C)cc1)C(C(C)=O)C(=O)OCC (centres undefined) | > 200 | > 200 | –
39 | Cc1cc2c(C(C)C)c(O)c(O)c(C=NC(C)c3ccccc3)c2c(O)c1-c1c(C)cc2c(C(C)C)c(O)c(O)c(C=NC(C)c3ccccc3)c2c1O (centres undefined) | > 7.24 | > 7.24 | inactive
40 | CCCCCCCCCCCCCCCCNc1ccn(C2CC(OP(=O)(O)OCC3CCC(n4ccc(N)nc4=O)O3)C(CO)O2)c(=O)n1 (centres undefined) | 1 | 97.7 | –
41 | COC(=O)/C(=N\NC(N)=O)C(C#N)c1ccccc1 (centres undefined) | > 692 | > 692 | –
42 | Cc1nc2nc3n(c(=O)c2nc1C)CCS3 | – | – | inactive
43 | CN(C)c1ccc(/C=C/c2ccnc3ccc4ccccc4c23)cc1 | > 79.4 | > 79.4 | –
44 | CC(=O)c1cc([N+](=O)[O-])ccc1OCC(=O)O | – | – | inactive

Row | Structure (SMILES) | EC50 [µM] | IC50 [µM] | outcome
45 | CCOC(=O)/C=C1\CCCn2c1ncc(C(=O)OCC)c2=O | > 200 | 3.63 | –
46 | CCCCCCCCCCCCCCCCCc1nnc(N)o1 | – | – | inactive
47 | [Cu+2].c1nnc(N2CNCCNCN(c3nnc[n-]3)CNCCNC2)[n-]1 | > 200 | > 200 | –
48 | Fc1ccc2nncc(SCc3ccccc3Cl)c2c1 | > 87.1 | 35.5 | –
49 | Cc1cn(C(C)OCCO[Si](C)(C)C(C)(C)C)c(=O)[nH]c1=O (centres undefined) | > 200 | 112 | –
50 | Cc1cc(CC(O)(C(F)(F)F)C(F)(F)F)cc(CC(O)(C(F)(F)F)C(F)(F)F)n1 | – | – | inactive
51 | C/C(=N\N(C)C)c1sc(-n2nc(-c3ccccc3)cc2-c2ccccc2)nc1C | > 46.8 | > 46.8 | –
52 | COc1cc(C2SC(N)=Nc3c2c(C)nn3C(=O)c2ccccc2O)cc(OC)c1OC (centres undefined) | > 20 | 0.457 | –
53 | COc1ccc(NC(=S)c2ccoc2C)cc1CC(=O)OC(C)C | 0.174 | 1.51 | –
54 | CC(=O)C1CC2=C(CCC1=O)CCC1(CC2)OCCO1 (centres undefined) | – | – | inactive
55 | Cc1cc([N+](=O)[O-])ccc1NC(=O)C(=O)C(C(=O)c1ccccc1-c1ccccc1)C1OC(=O)c2ccccc21 (centres undefined) | > 178 | 28.2 | –
56 | O=C1C(=O)c2ccccc2C(O)=C1C(C1=C(O)c2ccccc2C(=O)C1=O)c1ccc(Cl)cc1 | > 200 | 37.2 | –
57 | CC(=O)C1(C)CCC2C3C=C(C)C4=CC(=O)CCC4(C)C3CCC21C (centres undefined) | > 117 | 16.2 | –
58 | C[CH2][Sn]([CH2]C)([O]C(=O)C(OC(C)=O)c1ccccc1)[O]C(=O)C(OC(C)=O)c1ccccc1 (centres undefined) | > 229 | 2.69 | –
59 | CC(SC(=O)Nc1ccc(N=Nc2ccccc2)cc1)C(=O)O (centres undefined) | – | – | inactive
60 | CCOP(=O)(OCC)C(=O)C1CC1 | > 1200 | 832 | –
61 | OC(/C=C/c1ccccc1)Cc1nc2ccccc2[nH]1 (centres undefined) | > 38 | > 38 | –
62 | COc1ccccc1C=C1C(=O)NC(=O)NC1=O | > 145 | > 145 | –
63 | CC(C)(C)N/N=C(\C(=O)Nc1ccc([N+](=O)[O-])cc1[N+](=O)[O-])c1nc2ccc([N+](=O)[O-])cc2[nH]c1=O | > 14.5 | > 14.5 | –
64 | CN(C)c1ccc(/C=C(\NC(=O)c2ccccc2)c2nc3ccc4c(c3[nH]2)C(=O)c2ccccc2C4=O)cc1 | – | – | inactive
65 | Nn1c(=O)n(Cc2ccccc2)n(-c2ccccc2)c1=O | – | – | inactive
66 | COC(=O)[C@@H]1CN(C(=O)CCc2ccccc2)C(=O)N1 | > 200 | > 200 | –

Row | Structure (SMILES) | EC50 [µM] | IC50 [µM] | outcome
67 | O=CC1=CN2C(c3ccoc3)CCC(CO)C2CC1 (centres undefined) | – | – | inactive
68 | Cc1nc(NCCNCCO)nc2c1C(=O)Nc1ccccc1N2 | > 200 | 32.4 | –
69 | O=C(CC(=O)Nc1ccccc1)NNC(c1cc(N=Nc2ccc(Br)cc2)ccc1O)P(O)O (centres undefined) | > 100 | 3.98 | –
70 | COC(=O)/C=C(C)/C=C/c1cc(C(C)=O)c(C)o1 | > 145 | 102 | –
71 | COC(=O)N1CC=CC2(CCOCc3ccccc3)CC[C@@](O)(c3ccccc3NC(=O)C(C)(C)C)C(=O)C12 (some centres undefined) | > 35.5 | > 35.5 | –
72 | CC1(C)CNC[C@@](C)(OCc2ccccc2)C(=O)[N-]C(C)(C)CNC[C@@](C)(OCc2ccccc2)C(=O)[N-]1.[Ni+2] | > 200 | 105 | –
73 | O=CC(O)C(O)C(O)C(O)CON1C[C@@H](O)C(O)[C@@H](O)C1 (some centres undefined) | > 200 | > 200 | –
74 | O=C1c2c(O)cccc2Cc2cc(CO)cc(O)c21 | > 200 | 0.933 | –
75 | O=C1NC(=S)N/C1=C/c1ccccc1O | > 200 | 123 | –
76 | COc1ccc2[nH]c3c(=O)[nH]ncc3c2c1 | – | – | inactive
77 | COc1ccc(N=C2C(=Nc3ccc(OC)cc3)N(S(=O)(=O)c3ccccc3)C(=S)N2c2ccc(OC)cc2)cc1 | > 200 | > 200 | –
78 | C(=C/[PH+](c1ccccc1)c1ccccc1)/[PH+](c1ccccc1)c1ccccc1.[C-]#[O+].[C-]#[O+].[C-]#[O+].[C-]#[O+].[C-]#[O+].[Mo+2].[Mo+4].[c-]1[c-][c-][cH-][c-]1.[c-]1[c-][c-][cH-][c-]1 | > 6.03 | 3.31 | –
79 | Cn1c(=O)n2n(c1=O)C1C3C4C3C3C5(COCC135)C42 (centres undefined) | > 200 | > 200 | –
80 | COC(=O)c1sc2c(=O)c(C(=O)OC)c(C(=O)OC)sc2c(=O)c1C(=O)OC | > 151 | 12 | –
81 | CC(C)[Si](OC12CCC(CC1O)CC2CO)(C(C)C)C(C)C (centres undefined) | > 200 | 24.5 | –
82 | C1CSCCSCSCCS1 | > 44.7 | > 44.7 | –
83 | O=C(O)c1ccccc1C(=O)Cc1ccccc1 | > 200 | > 200 | –
84 | NC(=O)c1ccc([As](=O)(O)O)cc1N | > 200 | > 200 | –
85 | CN(C)c1ccc(/C=C2\CCc3ccccc3C2=O)cc1Br | > 10.7 | > 10.7 | –
86 | NC(=O)c1ccc2cc(O)c(O)cc2c1 | > 245 | 34.7 | –
87 | C[C@@]12[C@H]3CC[C@@H]1[C@H](O)C(=O)N2CC3 | > 200 | > 200 | –
88 | Cc1ccc(/C=C2/NC(=S)SC2=O)cc1 | > 200 | 170 | –
